According to publication PMC4003389, “Identification of pheromone components and their binding affinity to the odorant binding protein CcapOBP83a-2 of the Mediterranean fruit fly, Ceratitis capitata” (Insect Biochemistry and Molecular Biology, 2014):
Several values for one entry are separate records, joined by “and”; a condition that tells them apart may be missing. Equal values may be shown once. Read-outs that look alike come from different tables or passages of the source.

What was measured:
[1] = system: antennae of male and female C. capitata; assay: Coupled GC–EAG of male volatile extract on medfly antennae; set-up: species or system Ceratitis capitata; details: for electrophysiological (EAG) response, in words: GC–EAG of male volatile extract; for EAG response: number of females (F) that showed a positive EAG response: female antennae; for EAG response: number of females (F) that showed a positive EAG response / EAG response: number of males (M) that showed a positive EAG response: in a total of five replicates, GC–EAG; for EAG response: number of males (M) that showed a positive EAG response: male antennae
Method: Electrical responses to chemical stimuli were recorded from the antennae of both sexes using 4 day-old virgin individuals. Electroantennogram (EAG) recordings were made with Ag–AgCl glass microelectrodes filled with Ringer solution (for 1 L H2O solution: 7.2 g NaCl, 0.37 g KCl, 0.17 g CaCl2, pH 7.3–7.4). The head of a fly (both male and female), anaesthetised by chilling, was excised from the body with a microscalpel and the tip of one of the two arista was cut off with micro-scissors. The indifferent electrode was inserted in the head (from the base to the top-frontal part) and the recording electrode was positioned over the cut arista. Signals were passed through a high impedance amplifier (UN-06, Hilversum, The Netherlands) and analysed using a customised software package (Syntech). […] The oven was maintained at 30 °C for 2 min and then programmed for increments at 5 °C min^−1 to 250 °C. The carrier gas was helium. Outputs from the EAG amplifier and the FID were monitored simultaneously and analysed using the Syntech software package. […] The stimulus (2 s duration) was delivered into a purified airstream (1 l/min) flowing continuously over the preparation using a stimulus controller (Syntech CS02). Samples (10 μl) of the standard solution of test compounds (1 mg/ml in redistilled hexane) were applied in the cartridge. The control stimulus was hexane (10 μl). Five replicates were performed for each sample using antennae from 5 different flies.

[2] = target: T1, CcapOBP83a-2 (Ceratitis capitata, UniProt W8W3U3); assay: biochemical; assay type: binding; details: for IC50: read-out: IC50 (concentration of ligand halving the initial fluorescence level); for Ki: read-out: Ki (dissociation constant)
Method: The 1-NPN/protein mixture was excited at 337 nm and the emission was recorded between 380 and 450 nm on a Perkin Elmer LS 55 Fluorescence spectrometer (Cambridge–UK) at 25 °C in a right angle configuration with a 1 cm light path quartz cuvette. The excitation and emission slits were both 5 nm. Data were recorded and graphed using FL WinLab Software (Perkin–Elmer). […] Analyses were performed by nonlinear regression curve fitting using GraphPad Prism 5 (GraphPad Software, Inc, La Jolla, USA).

[3] = target: T1, CcapOBP83a-2; assay: Binding of fluorescent probe 1-NPN to CcapOBP83a-2 (fluorescence titration); details: for Kd: dissociation constant (KD) of 1-NPN, protein 2 μM, 20 mM Tris–HCl pH 7.4; for saturation level of 1-NPN: protein concentration ≈2 μM
Method: To measure the binding affinity of the fluorescent probe 1-NPN to CcapOBP83a-2, a 2 μM solution of protein in 20 mM Tris–HCl pH 7.4 was titrated with aliquots of 1 mM 1-NPN stock to a final concentration of 0.1–50 μM in methanol. The 1-NPN/protein mixture was excited at 337 nm and the emission was recorded between 380 and 450 nm on a Perkin Elmer LS 55 Fluorescence spectrometer (Cambridge–UK) at 25 °C in a right angle configuration with a 1 cm light path quartz cuvette. The excitation and emission slits were both 5 nm. Data were recorded and graphed using FL WinLab Software (Perkin–Elmer). The affinity of other ligands was measured in competitive binding assays, using 1-NPN as fluorescent reporter at 3 μM concentration and final concentrations of each competitor from 0.1 μM to 50 μM. To determine binding constants, the fluorescent intensity values at the maximum emission (after subtracting those measured without protein) were plotted against free ligand concentrations. […] IC50 values (the concentration of ligand halving the initial fluorescence level) were used to calculate each competitor dissociation constants (KD), by the equation: KD = IC50/1 + [1 − NPN]/K1-NPN, where [1 − NPN] is the free concentration of 1 − NPN and K1-NPN is the dissociation constant of the 1-NPN/protein complex. Analyses were performed by nonlinear regression curve fitting using GraphPad Prism 5 (GraphPad Software, Inc, La Jolla, USA).

[4] = first fraction, ligand 50 μM, 1-NPN 3 μM
[5] = second fraction, ligand 50 μM, 1-NPN 3 μM

T1 sequence (W8W3U3 entry or part of it): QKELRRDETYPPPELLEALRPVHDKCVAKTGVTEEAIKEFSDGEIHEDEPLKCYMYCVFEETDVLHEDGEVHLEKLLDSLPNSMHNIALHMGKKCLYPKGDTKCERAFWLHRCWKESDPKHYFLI

SMILES | electrophysiological (EAG) response, in words [1] | EAG response: number of females (F) that showed a positive EAG response [1] | EAG response: number of males (M) that showed a positive EAG response [1] | Int (end point fluorescent level): fluorescence intensity after the maximum quantity of chemical was added [2, 4] | Int (end point fluorescent level): fluorescence intensity after the maximum quantity of chemical was added [2, 5] | IC50 ([2]; second fraction, 1-NPN 3 μM) [µM] | Ki ([2]; second fraction, 1-NPN 3 μM) | Kd ([3]; first fraction of CcapOBP83a-2) [µM] | Kd ([3]; second fraction of CcapOBP83a-2) | saturation level of 1-NPN ([3]; first fraction) [µM] | saturation level of 1-NPN ([3]; second fraction) [µM] | Int (end point fluorescent level): fluorescence intensity after the maximum quantity of chemical was added [2] | binding activity, in words ([2]; first fraction) | Ki ([2]; first fraction, 1-NPN 3 μM) [µM]
CCC(C)C(C)=O (racemic) [(RS)-3-Methylpentan-2-one] | response only on the female antennae | 3 | 0 | 65.3 | 58.3 |  |  |  |  |  |  |  |  | 
C=CC(C)(O)CCC=C(C)C (racemic) [(RS)-Linalool] |  | 3 | 4 | 66.6 | 44.7 | 41 | 6.1 µM |  |  |  |  |  |  | 
c1ccc(Nc2cccc3ccccc23)cc1 [1-NPN, N-phenyl-1-naphthylamine] |  |  |  |  |  |  |  | 10.5 ± 1.4 | 0.6 µM and 0.617 µM | 10 to 20 | 5 to 10 |  |  | 
CC(C)CCO [3-Methylbutan-1-ol] |  | M4F4 | M4F4 |  |  |  |  |  |  |  |  | 63.4 and 55.6 |  | 
C=C/C(C)=C/CC=C(C)C [(E)-Ocimene] | response only on the female antennae | 4 | 0 | 66.3 | 50.7 | 50 | 8.2 µM and 8.17 µM |  |  |  |  |  |  | 
C=CC(=C)CC/C=C(\C)CCC=C(C)C [(E)-β-Farnesene, reference compound] |  |  |  | 75.1 | 33.6 |  | 0.2 µM |  |  |  |  |  | limited degree of binding | 1.4
C=C/C(C)=C/C/C=C(\C)CCC=C(C)C [(E,E)-α-Farnesene] | small responses in both male and female flies | 3 | 2 | 34.3 | 14.4 | 1.2 | 0.1 µM and 0.133 µM |  |  |  |  |  |  | 6.56
C[C@@H](O)[C@@H](C)O [(RR)-2,3-Butanediol] |  | 3 | 2 | 62.9 | 58.3 |  |  |  |  |  |  |  |  | 
C=C/C(C)=C\CC=C(C)C [(Z)-Ocimene] |  | M4F4 | M4F4 | 49.9 | 23.4 | 13.5 | 1.9 µM and 1.89 µM |  |  |  |  |  |  | 4.52
CC1CCOC1=O (stereo not drawn) [Dihydro-3-methyl-2-(3H)-furanone] |  | 4 | 3 | 66.5 | 58.1 |  |  |  |  |  |  |  |  | 
CC/C=C/CC(=O)OCC [Ethyl (E)-3-hexenoate] |  | M4F4 | M4F4 | 68.5 | 51.5 |  |  |  |  |  |  |  |  | 
CCCC/C=C/CC(=O)OCC [Ethyl (E)-3-octenoate] |  | M4F4 | M4F4 | 55.6 | 24.2 | 18 | 2.41 µM |  |  |  |  |  |  | 
CCCCCCCC(=O)OCC [Ethyl octanoate, reference compound] |  |  |  | 66.3 | 26.1 | 15 | 2 µM and 1.96 µM |  |  |  |  |  |  | 
CC(=O)OC/C=C(\C)CCC=C(C)C [Geranyl acetate] |  | 4 | 5 | 70.4 | 17.4 | 6.5 | 0.9 µM and 0.901 µM |  |  |  |  |  |  | 
c1ccc2[nH]ccc2c1 [Indole] |  | M3F3 | M3F3 | 66.2 | 60.1 |  |  |  |  |  |  |  |  | 
C=CCc1ccc(OC)c(OC)c1 [Methyleugenol, reference compound] |  |  |  | 61.9 | 46.0 | 43 | 4.64 µM |  |  |  |  |  |  | 
C=CC(=C)CCC=C(C)C [Myrcene] | response only on the female antennae | 4 | 0 | 77.5 | 39.6 | 10 | 0.9 µM and 0.879 µM |  |  |  |  |  |  | 
OC1COCC1O (stereo not drawn) [Tetrahydro-3,4-furandiol] |  | 4 | 2 | 66.2 | 59.9 |  |  |  |  |  |  |  |  | 
CC1CC(Cl)CCC1C(=O)OC(C)(C)C (stereo not drawn) [Trimedlure, t-Butyl-2-methyl-4-chlorocyclohexanecarboxylate, reference compound] |  |  |  | 66.0 | 9.8 | 2.1 | 0.3 µM and 0.322 µM |  |  |  |  |  |  | 
